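Five compound concentrations were applied to cells in 96-well plates for 48 hours; endpoints were derived by simple linear interpolation of the resulting dose-response curve. At the GI50, growth is halved.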 Activity calls are given as the source filed them. Cut-off read from the data, not from the text of the source: active = GI50 up to about 1.1 µM and inactive = higher.
Tests used:
Experiment in all cases: NCI tumour cell line growth inhibition, 48 h
A498 = system: A498
HOP-62 = system: HOP-62
NCI-H522 = system: NCI-H522
K562 = system: K562
CAKI-1 = system: CAKI-1
SK-OV-3 = system: SK-OV-3
Malme-3M = system: Malme-3M
NCI-H226 = system: NCI-H226
RPMI-8226 = system: RPMI-8226
HL-60 = system: HL-60
SNB-19 = system: SNB-19
RXF 393 = system: RXF 393
KM-20L2 = system: KM-20L2
UACC-257 = system: UACC-257
SNB-75 = system: SNB-75
TK-10 = system: TK-10
SK-MEL-2 = system: SK-MEL-2
SW-620 = system: SW-620
SF-268 = system: SF-268
SK-MEL-28 = system: SK-MEL-28

SMILES | GI50 (A498) | GI50 (HOP-62) | GI50 (NCI-H522) | GI50 (K562) | GI50 (CAKI-1) | GI50 (SK-OV-3) | GI50 (Malme-3M) | GI50 (NCI-H226) | GI50 (RPMI-8226) | GI50 (HL-60) | GI50 (SNB-19) | GI50 (RXF 393) | GI50 (KM-20L2) | GI50 (UACC-257) | GI50 (SNB-75) | GI50 (TK-10) | GI50 (SK-MEL-2) | GI50 (SW-620) | GI50 (SF-268) | GI50 (SK-MEL-28)
CC1=C(C(=O)Nc2cc(F)c(F)cc2F)C(c2cccc([N+](=O)[O-])c2)C(C(=O)Nc2ccccc2C(F)(F)F)=C(C)N1 (stereo not given) | 11.2 µM (inactive) | 22.4 µM (inactive) | 13.8 µM (inactive) | 14.4 µM (inactive) | 15.8 µM (inactive) | 23.2 µM (inactive) | 25.4 µM (inactive) | 21.3 µM (inactive) | 13 µM (inactive) | 14.6 µM (inactive) | 30.7 µM (inactive) | 13.9 µM (inactive) | 23.8 µM (inactive) | 23.4 µM (inactive) | 12.6 µM (inactive) | 31.8 µM (inactive) | 18 µM (inactive) | 31 µM (inactive) | 18.7 µM (inactive) | 22 µM (inactive)
Cc1ccc(S(=O)(=O)Nc2cccc3c(=O)nc[nH]c23)cc1 | > 100 µM (inactive) | > 100 µM (inactive) | 76.6 µM (inactive) | 43.6 µM (inactive) | > 100 µM (inactive) | > 100 µM (inactive) | > 100 µM (inactive) | > 94.6 µM (inactive) | 17.8 µM (inactive) | 23.3 µM (inactive) | > 100 µM (inactive) | > 65.3 µM (inactive) | > 100 µM (inactive) | > 87.5 µM (inactive) | > 51.1 µM (inactive) | > 100 µM (inactive) | > 100 µM (inactive) | > 100 µM (inactive) | > 100 µM (inactive) | > 100 µM (inactive)
Cc1ccc(NC(=O)CC/C(CC(=O)c2ccc(Cl)cc2)=N\NC(=O)C(=O)NN)cc1C | > 100 µM (inactive) | > 100 µM (inactive) | > 100 µM (inactive) | > 100 µM (inactive) | > 100 µM (inactive) | > 100 µM (inactive) | > 100 µM (inactive) | > 100 µM (inactive) | > 100 µM (inactive) | > 100 µM (inactive) | > 100 µM (inactive) | > 100 µM (inactive) | > 100 µM (inactive) | > 100 µM (inactive) | > 100 µM (inactive) | > 100 µM (inactive) | > 100 µM (inactive) | > 100 µM (inactive) | > 100 µM (inactive) | > 100 µM (inactive)
CCOC(=O)NC1=C(N2CC2)C(=O)C(NC(=O)OCC)=C(N2CC2)C1=O [DIAZIQUONE] | 3.56 µM (inactive) | 0.741 µM (active) | 3.14 µM (inactive) | 5.43 µM (inactive) | 1.08 µM (active) | 4.52 µM (inactive) | 6.49 µM (inactive) | 4.23 µM (inactive) | 3.99 µM (inactive) | 0.357 µM (active) | 4.11 µM (inactive) | 4.68 µM (inactive) | 6.93 µM (inactive) | 4.65 µM (inactive) | 4.73 µM (inactive) | 31.6 µM (inactive) | 5.96 µM (inactive) | 4.97 µM (inactive) | 2.81 µM (inactive) | 13 µM (inactive)

Reference: ChEMBL document CHEMBL1201862, “PubChem BioAssay data set” (2004)
